As usually defined, the IC50 is the concentration needed to halve the response being measured.

Experimental findings from article PMC1199608 (Cancer Cell International, 2005) are described below.

“Also recorded” adds a separate entry of the source. Read-outs that look alike come from different tables or passages of the source. No end group written: not given here.

Series [1] has as its system Jurkat cells. The series is described as follows: Apoptosis by electron microscopy. The series is classed as cell-based. Particulars: 4-hr incubation, 62.5 μM Pep27anal2, 100 μM etoposide, 200–400 cells counted per group. Here is the method:
Jurkat cells were harvested and immediately fixed in phosphate-buffered glutaraldehyde solution (pH 7.2) for 2 hrs and then fixed in 1% buffered osmium tetroxide for 2 hrs at 4°C. After processing through a graded series of ethanol and propylene oxide, the cells were embedded in Epon. A semi-thin (1 μm) section was cut and stained with toluidine blue for the ultrastructural examination. Ultra-thin (60–90 nm) sections were also prepared from the Epon block above using an ultramicrotome (LKB-V, Sweden), stained with uranyl acetate and lead citrate, and examined under a Hitachi H-7600 electron microscope (Hitachi, Kyoto, Japan). Apoptosis detection was done by taking photographs (×1,000) of the entire field of each ultra-thin sectioned sample. The degree of apoptosis (apoptosis index) was defined as the number of apoptotic cells expressed as a percentage of the total cell count.

The subject of series [2] is MCF-7 breast cancer cell line. Conditions: MTT assay, from semilogarithmic dose-response curves, at least in duplicate. Here is the method:
(§1) OCI-AML-2 (AML-2) cell line was obtained from the Ontario Cancer Institute (Toronto, Canada), and Jurkart and HL-60 cell lines from the American Type Culture Collection (ATCC, USA). These three cell lines were cultured at 37°C in a 5% CO2 atmosphere using α-MEM medium (GibcoBRL, Gland Island, NY, USA) containing 10% heat-inactivated fetal bovine serum (FBS, Sigma, ST. Louis, MO, USA). MCF-7 and NIH/3T3 cell lines from ATCC and SNU-601 cell line from the Korean Cancer Cell Bank (Seoul, Korea) were cultured under the same conditions but using RPMI-1640 medium (GibcoBRL, Gland Island, NY, USA) containing 10% heat-inactivated FBS. Cells were maintained in suspension or as monolayer cultures, and subcultured.
(§2) The in vitro cytotoxicity of the Pep27 analogues produced was measured by MTT [3-(4,5-dimethylthiazol-2-yl)-2,5-diphenyl tetrazolium bromide, Sigma, ST. Louis, USA] assay, as described by. IC50 values were determined directly from semilogarithmic dose-response curves. Experiments were carried out at least in duplicate.
(§3) To evaluate the anticancer activities of the Pep27 analogues, different concentrations of these peptides were administered to various cancer cell lines, and cytotoxicities were then determined by MTT assay. In this study, we used both anchorage-dependent and independent cancer cell lines. These included AML-2 an acute myelogenous leukemia cell line, HL-60 an acute promyelocytic leukemia cell line, Jurkat a T cell leukemia cell line, SNU-601 a gastric cancer cell line and MCF-7 a breast cancer cell line.
For orientation: Tetrazolium dyes change colour on reduction, which living cells bring about.

Series [3] relates to Jurkat T cell leukemia cell line. Particulars: MTT assay, from semilogarithmic dose-response curves, at least in duplicate. Here is the method: as §1, §2, §3
Series [4] deals with SNU-601 gastric cancer cell line. Particulars: MTT assay, from semilogarithmic dose-response curves, at least in duplicate. Here is the method:
as §1, §2, §3

The subject of series [5] is HL-60 acute promyelocytic leukemia cell line. Conditions: MTT assay, from semilogarithmic dose-response curves, at least in duplicate. Here is the method:
as §1, §2, §3

Series [6] relates to AML-2 acute myelogenous leukemia cell line. Conditions: MTT assay, from semilogarithmic dose-response curves, at least in duplicate. Here is the method:
as §1, §2, §3

Another series deals with human erythrocytes. Particulars: 4% human erythrocytes in PBS pH 7.0, 1 h at 37°C, absorbance 414 nm, 100% = 0.1% Triton-100. The method, then: Peptide hemolytic activities were measured as described by, by determining hemoglobin release by 4% suspensions of fresh human erythrocytes at 414 nm. Briefly, human erythrocyte cells were centrifuged and washed three times with phosphate-buffered saline (PBS: 35 mM phosphate buffer/0.15 M NaCl, pH 7.0). […] of human red blood cells suspended 8% (v/v) in PBS were the inoculated into 96-well plates. […] of the peptide solution, Pep27 or its analogues, was then added to each well. The plates were incubated for 1 h at 37°C, and centrifuged at 150 g for 5 min. […] aliquots of the supernatant obtained were transferred to flat-bottom 96-microtiter plates. Hemolysis was determined by measuring absorbance at 414 nm with an ELISA plate reader (Molecular Devices Emax, Sunnyvale, CA, USA). Hemolysis rates of 0% or 100% were determined as the same way with PBS and 0.1% Triton-100, respectively. Hemolysis percent was calculated using the following equation: % hemolysis = [(Abs414nm in the peptide solution - Abs414nm in PBS)/(Abs414nm in 0.1% Triton-100 - Abs414nm in PBS)] × 100.

Series [7] relates to Jurkat cells. The series can be described thus: Apoptosis and membrane integrity by flow cytometry (annexin V-FITC / PI). Conditions: 4 hr, 12.5 μM or 63 μM Pep27anal2, 12.5 μM mellitin, 100 μM etoposide. It is filed as cell-based. The method, then: Annexin V binding was assessed by flow cytometry, and cell staining was evaluated using FITC-labeled annexin V (green fluorescence), and propidium iodide (PI) ([…]) simultaneously. This test was able to discriminate between intact cells (FITC-/PI-), apoptotic cells (FITC+/PI-) and necrotic cells (FITC+/PI+) (Vermes et al., 1995). Jurkat cells (10^5/ml) were exposed to etoposide (100 μM), mellitin (12.5 μM) and Pep27anal2 (12.5 μM and 62.5 μM) for 4 hr. Cells were washed with PBS, resuspended in 400 μl of binding buffer (10 mM Hepes/NaOH, pH 7.4, 140 mM NaCl, 2.5.mM CaCl2), and incubated with 10 μl of annexin V-FITC (MedSystems Diagnostics, GmbH, […]) for 10 min at room temperature. After incubation, cells were washed with binding buffer and exposed to 1 μg of PI in a final volume of 400 μl. FITC and PI fluorescences were determined using a flow cytometer (Becton Dickinson, Franklin Lakes, FL, USA)
In the present study, Jurkat cells were treated with 100 μM of etoposide, 12.5 μM of mellitin or 12.5 μM or 63 μM of Pep27anal2 for 4 hr. Apoptosis and membrane integrity were then determined using annexin V and propidium iodide, respectively, as described in "Materials and methods". […] Dead cells appear first in the lower right quadrant (apoptosis), where death was due to the externalization of PS (detected with annexin V-FITC).
A general note: In flow cytometry, cells or beads pass a laser one at a time.

The subject of series [8] is Jurkat cells. The series is described as follows: Cytochrome c release from mitochondria to cytosol (Western blotting). It is filed as cell-based. Particulars: Jurkat cells (5 × 10^5/ml), 62.5 μM, 4 h. The method, then: Cytochrome c immunoblotting was performed using a slight modification of a previously described method. Jurkat cells were collected by centrifugation at 200 g for 5 min at 4°C. The cells were then washed twice with ice-cold PBS, pH 7.4, and centrifuged at 200 g for 5 min. The cell pellet obtained was then resuspended in 600 μl of extraction buffer, containing 20 mM Hepes-KOH (pH 7.5), 10 mM KCl, 250 mM sucrose, 1 mM EGTA, 1 mM EDTA, 1.5 mM MgCl2, 1 mM dithiothreitol and 0.1 mM phenylmethylsulfonyl fluoride.
After incubation for 30 min on ice, the cells were homogenized (20 strokes), spun at 14,000 g for 15 min, supernatants were separated from the mitochondrial fraction, and both were stored at -70°C, until required for gel electrophoresis. The mitosol fraction was obtained by adding 0.1% SDS. […]
Cytochrome c is a well-characterized mitochondrial protein and is involved in cellular energy metabolism. […] After these incubations, cytochrome c in the cytosol fraction, obtained by 14,000 g centrifugation for 15 min, and in the mitosol, obtained by adding 0.1% SDS to the mitochondrial fraction, was determined by Western blotting.
On the technique in general: In western blotting, separated proteins are transferred to a membrane and probed.

Consider `COc1cc([C@@H]2c3cc4c(cc3[C@@H](O[C@@H]3O[C@@H]5CO[C@@H](C)O[C@H]5[C@H](O)[C@H]3O)[C@H]3COC(=O)[C@H]23)OCO4)cc(OC)c1O` [Etoposide, etoposide, reference compound], for which the “apoptosis (apoptotic cells by electron microscopy)” value with Jurkat cells [1] is on record as “Apoptotic cells were more frequent than in the control group”.

Turning to “MWKEFHNVLSSGQLLADKRWARWYNRW-NH2 [Pep27anal4]”, the IC50 in series [2] was found to be 29 µM; in series [3], 46 µM; in series [4], 37 µM; in series [5] it was 51 µM; in series [6], 50 µM. The “% Hemolysis” value in the series with human erythrocytes (0.19 μM peptide), in the series with human erythrocytes (0.39 μM peptide), with human erythrocytes (0.78 μM peptide), in the series on human erythrocytes (1.56 μM peptide), in the series on human erythrocytes (3.12 μM peptide) and in the series with human erythrocytes (6.25 μM peptide) was 0% each time. The “% Hemolysis” value with human erythrocytes (12.5 μM peptide) amounted to 0%.

Take “MWKWFHNVLSWWWLLADKRPARDYNRK-NH2 [Pep27anal2]”: in the series with Jurkat cells [1], the “apoptosis (apoptotic cells by electron microscopy)” value is reported as “Apoptotic cells were most frequent in this group; also recorded: induced more apoptosis than 100 μM of etoposide”. Further, in the series with Jurkat cells [7], the “annexin V-FITC staining (apoptosis) and PI staining (membrane integrity)” value was “caused a higher level of annexin V-FITC staining with a little increase of PI staining than etoposide”. In addition, the “cytochrome c release from mitochondria into the cytosol” value in the series with Jurkat cells [8] is given as “did not induce cytochrome c release”.

For the compound “MWKWFHNVLSSGQLLADKWWAWWYNWW-NH2 [Pep27anal5]”, the IC50 in series [2], in series [3], in [4], in series [5] and in series [6] was > 70 µM in each case. In addition, the “% Hemolysis” value in the series with human erythrocytes (0.19 μM peptide), with human erythrocytes (0.39 μM peptide), in the series on human erythrocytes (0.78 μM peptide), with human erythrocytes (1.56 μM peptide), in the series with human erythrocytes (3.12 μM peptide) and with human erythrocytes (6.25 μM peptide) was 0% throughout. For the same compound, the “% Hemolysis” value in the series on human erythrocytes (12.5 μM peptide) was 0%.

Consider `CC[C@H](C)[C@H](NC(=O)CN)C(=O)NCC(=O)N[C@@H](C)C(=O)N[C@H](C(=O)N[C@@H](CC(C)C)C(=O)N[C@@H](CCCCN)C(=O)N[C@H](C(=O)N[C@@H](CC(C)C)C(=O)N[C@H](C(=O)N[C@H](C(=O)NCC(=O)N[C@@H](CC(C)C)C(=O)N1CCC[C@H]1C(=O)N[C@@H](C)C(=O)N[C@@H](CC(C)C)C(=O)N[C@H](C(=O)N[C@@H](CO)C(=O)N[C@@H](Cc1c[nH]c2ccccc12)C(=O)N[C@H](C(=O)N[C@@H](CCCCN)C(=O)N[C@@H](CCCNC(=N)N)C(=O)N[C@@H](CCCCN)C(=O)N[C@@H](CCCNC(=N)N)C(=O)N[C@@H](CCC(N)=O)C(=O)N[C@@H](CCC(N)=O)C(N)=O)[C@@H](C)CC)[C@@H](C)CC)[C@@H](C)O)[C@@H](C)O)C(C)C)C(C)C` [Mellitin, reference compound], for which the “annexin V-FITC staining (apoptosis) and PI staining (membrane integrity)” value in the series on Jurkat cells [7] was “increased the distribution of PI staining without an increase of annexin V-FITC staining”.

As for “MRKEFHNVLSSGQLLADKRPARDYNRK-NH2 [Pep27, reference compound]”, the IC50 in [2], in series [3], in series [4], in [5] and in series [6] was > 70 µM in each case. The “% Hemolysis” value with human erythrocytes (0.19 μM peptide), in the series with human erythrocytes (0.39 μM peptide), in the series on human erythrocytes (0.78 μM peptide), in the series on human erythrocytes (1.56 μM peptide), with human erythrocytes (3.12 μM peptide) and in the series on human erythrocytes (6.25 μM peptide) was 0% in each case. In the series with human erythrocytes (12.5 μM peptide), the “% Hemolysis” value is given as 0%.
